Test results from patent US7452695B2, “Methods for increasing polypeptide production” (Immunex Corporation, priority 2002, dated 2008).
“And” between values parts separate entries of the source, which are not always exact repeats. Equal entries are not always repeated. Where two headings read alike, the source gives them in different places.

Key:
[1] = test system: CHO cells stably transformed with nucleic acids encoding RANK:Fc; experiment: Production of RANK:Fc with HMBA, caffeine and/or butyric acid, shaker flask, 5 days at 31° C. (Example 8); format: cell-based, Chinese hamster
Description: Nucleic acids encoding RANK:Fc inserted into a suitable vector (as described in International Application WO 01/36637) were introduced into CHO cells. […] Cells were grown for a total of 5 days in shaker flasks. Thereafter, all medium was harvested. The number of cells present in the culture was determined by staining with trypan blue and counting the cells in a hemocytometer. […] An average number of cells in the culture was calculated by averaging the starting and ending cell numbers. Specific productivity was determined from the total number of micrograms of RANK:Fc produced, an average cell number (calculated as described above), and the number of days of growth. Nucleic acids encoding RANK:Fc inserted into a suitable vector (as described in International Application WO 01/36637) were introduced into CHO cells. […] Cells were grown for a total of 5 days in a shaker flask. Thereafter, all medium was harvested. The number of cells present in the culture, the titer of RANK:Fc per milliliter of harvested medium, and specific productivity were determined as described above in Example 7.

[2] = test system: CHO cells stably transformed with nucleic acids encoding RANK:Fc; experiment: Production of RANK:Fc with varying amounts of HMBA, shaker flasks, 5 days at 31° C. (Example 7); format: cell-based, Chinese hamster
Description: Nucleic acids encoding RANK:Fc inserted into a suitable vector (as described in International Application WO 01/36637) were introduced into CHO cells. […] Cells were grown for a total of 5 days in shaker flasks. Thereafter, all medium was harvested. The number of cells present in the culture was determined by staining with trypan blue and counting the cells in a hemocytometer. […] An average number of cells in the culture was calculated by averaging the starting and ending cell numbers. Specific productivity was determined from the total number of micrograms of RANK:Fc produced, an average cell number (calculated as described above), and the number of days of growth.

[3] = test system: CHO cells stably transformed with nucleic acids encoding an antibody against a murine IL-4 receptor
[4] = test system: CHO cells stably transformed with nucleic acids encoding a type II IL-1 receptor; experiment: Production of type II IL-1 receptor with HMBA in a bioreactor (Example 9); format: cell-based, Chinese hamster; details: 2 mM, added at shift to 31° C. after 2 days at 37° C., 12 more days
Description: About 500 thousand cells from a stably transformed line were inoculated into a one liter of serum-free medium in a bioreactor. Cells were grown for two days at 37° C. Thereafter, cells were shifted to 31° C., either without HMBA or in the presence of 2 mM HMBA, and grown for 12 more days. Thereafter, all medium was harvested. […] Data from this experiment are shown in Table 6 as a percentage of the average of the protein titers obtained from the two samples without HMBA rounded to the nearest whole number.

cell line #9 = experiment: Induction effects of xanthine derivatives in cell line #9, shake flasks, 6 days at 31° C. (Example 5); format: cell-based, Chinese hamster; details: for protein titer compared with the no inducer control culture: concentrations of Table 3 (0.1-1 mM xanthines; 0.5 mM butyrate)
Description: To dissolve 3-isobutyl-1-methylxanthine (IBX), it was solubilized in water heated to almost the boiling point, and quickly added to the flasks before it precipitated. […] The induction phase of the cell culture was carried out for 6 days at 31° C., and samples were removed for analysis at 3 day and 6 day timepoints.

[5] = test system: CHO cell production line genetically engineered to express TNFR:Fc (cell line #5); experiment: Induction of TNFR:Fc expression, shaker flasks, 5 days at 31° C. (Example 1); format: cell-based, Chinese hamster
Description: CHO cells were grown in spinner flasks at 37° C. using serum-free growth medium containing methotrexate. […] The cells, at initial cell densities of 2×10^6 cells/ml in 20 ml, were placed in 125 ml plastic Erlenmeyer flasks with plug seal caps and placed on shaker platforms in incubators set to the appropriate temperatures. Cell viability and number were monitored by haemocytometer counting using trypan blue dye. Recombinant polypeptide titers were assessed by ELISA-based assays. […] A flask containing no inducing compound was also included. The shaker flasks were incubated in this induction phase for 5 days at 31° C. in incubators without carbon dioxide control.

Compound: CCCC(=O)O [Butyric acid, butyric acid]
- Specific productivity (μg/10^6 cells/day) ([1]; 0.5 mM): 31.6 μg/10^6 cells/day
- Titer of RANK: Fc ([1]; 0.5 mM): 476 µg/mL

Compound: CC(=O)NCCCCCCNC(C)=O [HMBA, hexamethylene bisacetamide]
- Specific productivity (μg/10^6 cells/day) ([2]; 0.1 mM): 19.1 μg/10^6 cells/day
- Titer of RANK: Fc ([2]; 0.1 mM): 243 µg/mL
- Specific productivity (μg/10^6 cells/day) ([2]; 0.5 mM): 19.5 μg/10^6 cells/day
- Titer of RANK: Fc ([2]; 0.5 mM): 347 µg/mL
- Specific productivity (μg/10^6 cells/day) ([2]; 2.0 mM): 23.9 μg/10^6 cells/day
- Titer of RANK: Fc ([2]; 2.0 mM): 444 µg/mL
- production of the antibody compared with no inducer ([3]; 2 mM): enhanced production of the antibody
- extent of enhancement of antibody production compared with sodium butyrate (0.5 mM) ([3]; 2 mM, 31° C.): to a greater extent than did sodium butyrate
- Specific productivity (μg/10^6 cells/day) ([1]; 2 mM): 22.8 μg/10^6 cells/day
- Titer of RANK: Fc ([1]; 2 mM): 410 µg/mL
- Relative Titer of type II IL-1 Receptor (percent of average of samples without HMBA) [4]: 120% and 125%

Compound: CC(C)Cn1c(=O)n(C)c(=O)c2[nH]cnc21 [IBX, 3-isobutyl-1-methylxanthine]
- Titer (μg/ml) Day 3 (cell line #9; 0.5 mM): 150 µg/mL
- Titer (μg/ml) Day 6 (cell line #9; 0.5 mM): 420 µg/mL
- production compared with caffeine (cell line #9; 0.5 mM): even better than caffeine

Compound: Cn1c(=O)c2[nH]cnc2n(C)c1=O [aminophylline, theophylline compound with 1,2-ethylenediamine (2:1) dihydrate]
- Titer (μg/ml) Day 3 (cell line #9; 0.1 mM): 110 µg/mL
- Titer (μg/ml) Day 6 (cell line #9; 0.1 mM): 260 µg/mL
- Titer (μg/ml) Day 3 (cell line #9; 0.5 mM): 120 µg/mL
- Titer (μg/ml) Day 6 (cell line #9; 0.5 mM): 250 µg/mL
- Titer (μg/ml) Day 3 (cell line #9; 1 mM): 100 µg/mL
- Titer (μg/ml) Day 6 (cell line #9; 1 mM): 200 µg/mL
- protein titer compared with the no inducer control culture (cell line #9): did not induce protein titers above that seen in the no inducer control culture

Compound: CCCC(=O)[O-].[Na+] [butyrate, sodium butyrate]
- Titer (μg/ml) Day 3 (cell line #9; 0.5 mM): 100 µg/mL
- Titer (μg/ml) Day 6 (cell line #9; 0.5 mM): 220 µg/mL
- protein titer compared with the no inducer control culture (cell line #9): does not induce increased protein titer over that seen in a culture with no inducer
- rate (in μg protein/10^6 cells/day) relative to control cultures ([5]; 0.2 mM): about 1.07 times the rate of control cultures
- total protein (in μg/ml) relative to control culture ([5]; 0.2 mM): about 1.11 times the total protein produc
- production of the antibody compared with no inducer ([3]; 0.5 mM): enhanced production of the antibody

Compound: Cn1c(=O)c2c(ncn2C)n(C)c1=O [caffeine, 1,3,7-trimethylxanthine]
- rate of production compared with 0.2 mM butyrate culture ([5]; 0.5 mM): slightly higher rates of production
- rate of productivity per cell compared with no inducing agent ([5]; 2 mM): higher
- Specific productivity (μg/10^6 cells/day) ([1]; 1 mM): 23.6 μg/10^6 cells/day
- Titer of RANK: Fc ([1]; 1 mM): 362 µg/mL

Compound: Cn1cnc2c1c(=O)[nH]c(=O)n2C [theobromine, 3,7-dimethylxanthine]
- Titer (μg/ml) Day 3 (cell line #9; 0.1 mM): 90 µg/mL
- Titer (μg/ml) Day 6 (cell line #9; 0.1 mM): 270 µg/mL
- Titer (μg/ml) Day 3 (cell line #9; 0.5 mM): 100 µg/mL
- Titer (μg/ml) Day 6 (cell line #9; 0.5 mM): 260 µg/mL
- Titer (μg/ml) Day 3 (cell line #9; 1 mM): 100 µg/mL
- Titer (μg/ml) Day 6 (cell line #9; 1 mM): 260 µg/mL
- protein titer compared with the no inducer control culture (cell line #9): did not induce protein titers above that seen in the no inducer control culture
